Test results taken from the supplement of paper PMC10307832.

How the values were obtained:
Assay in all cases: relative viability (nuclei count vs DMSO), 5 days (fraction); higher = more cells survive
[1] = compound: COc1cc2ncn(-c3cc(OCc4ccccc4C(F)(F)F)c(C(N)=O)s3)c2cc1OC + Cc1cc(Nc2cc(N3CCN(C)CC3)nc(Sc3ccc(NC(=O)C4CC4)cc3)n2)n[nH]1 [Tozasertib] (partner 0.1 µM)
How it was run: (§1)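 Lung cancer cell lines in 1536-well plates were dosed by pin tool the day after seeding, either with one drug alone or with a fixed anchor-drug dose plus five library-drug doses (not always all listed) in √10 steps. After 5 days, cells were fixed and their nuclei stained in one step (final 0.05% Triton X-100, 1% formaldehyde, 1 ug/ml Hoechst), then counted on 4× images. Relative viability is the nuclei count in treated wells divided by that in vehicle wells. Values are medians of duplicate plates.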

[2] = compound: COc1cc2ncn(-c3cc(OCc4ccccc4C(F)(F)F)c(C(N)=O)s3)c2cc1OC + COc1cc2c(Oc3ccc(NC(=O)C4(C(=O)Nc5ccc(F)cc5)CC4)cc3F)ccnc2cc1OCCCN1CCOCC1 [Foretinib] (partner 0.25 µM)
How it was run: as §1

[3] = compound: COc1cc2ncn(-c3cc(OCc4ccccc4C(F)(F)F)c(C(N)=O)s3)c2cc1OC + NC(=O)Nc1cc(-c2cccc(F)c2)sc1C(=O)N[C@H]1CCCNC1 [AZD7762] (partner 0.2 µM)
How it was run: as §1

[4] = compound: COc1cc2ncn(-c3cc(OCc4ccccc4C(F)(F)F)c(C(N)=O)s3)c2cc1OC + CCNC(=O)c1noc(-c2cc(C(C)C)c(O)cc2O)c1-c1ccc(CN2CCOCC2)cc1 [Luminespib] (partner 0.01 µM)
How it was run: as §1

Cell Line | relative viability ([1]; first compound 0.05 µM) | relative viability ([1]; first compound 0.1581 µM) | relative viability ([1]; first compound 0.5 µM) | relative viability ([1]; first compound 1.581 µM) | relative viability ([1]; first compound 5 µM) | relative viability ([2]; first compound 0.05 µM) | relative viability ([2]; first compound 0.1581 µM) | relative viability ([2]; first compound 0.5 µM) | relative viability ([2]; first compound 1.581 µM) | relative viability ([2]; first compound 5 µM) | relative viability ([3]; first compound 0.05 µM) | relative viability ([3]; first compound 0.1581 µM) | relative viability ([3]; first compound 0.5 µM) | relative viability ([3]; first compound 1.581 µM) | relative viability ([3]; first compound 5 µM) | relative viability ([4]; first compound 0.05 µM) | relative viability ([4]; first compound 0.1581 µM) | relative viability ([4]; first compound 0.5 µM) | relative viability ([4]; first compound 1.581 µM) | relative viability ([4]; first compound 5 µM)
LC-2-ad | 0.439 | 0.512 | 0.273 | 0.359 | 0.367 | 0.916 | 0.946 | 0.506 | 0.286 | 0.303 | 0.769 | 0.896 | 0.576 | 0.14 | 0.129 | 0.759 | 0.857 | 0.515 | 0.293 | 0.29
LCLC-97TM1 | 0.254 | 0.246 | 0.148 | 0.17 | 0.162 | 0.914 | 0.896 | 0.646 | 0.184 | 0.147 | 0.355 | 0.293 | 0.161 | 0.0896 | 0.0604 | 0.757 | 0.719 | 0.415 | 0.167 | 0.197
LCLC-103H | 0.395 | 0.457 | 0.33 | 0.252 | 0.217 | 0.646 | 0.831 | 0.537 | 0.199 | 0.131 | 0.75 | 0.876 | 0.707 | 0.375 | 0.242 | 0.771 | 0.927 | 0.594 | 0.273 | 0.151
LK-2 | 0.177 | 0.174 | 0.163 | 0.162 | 0.195 | 1.27 | 0.987 | 0.266 | 0.163 | 0.135 | 0.386 | 0.366 | 0.202 | 0.115 | 0.126 | 0.194 | 0.204 | 0.157 | 0.152 | 0.173
LOU-NH91 | 0.653 | 0.641 | 0.399 | 0.29 | 0.31 | 0.933 | 0.978 | 0.754 | 0.423 | 0.713 | 0.774 | 0.818 | 0.638 | 0.41 | 0.277 | 0.358 | 0.385 | 0.308 | 0.278 | 0.301
LU99A | 0.224 | 0.246 | 0.247 | 0.241 | 0.246 | 0.564 | 0.87 | 0.572 | 0.302 | 0.216 | 0.306 | 0.385 | 0.226 | 0.132 | 0.0907 | 0.225 | 0.304 | 0.207 | 0.172 | 0.203
LXF-289 | 0.192 | 0.197 | 0.145 | 0.129 | 0.107 | 0.92 | 0.858 | 0.483 | 0.158 | 0.0736 | 1.1 | 1 | 0.983 | 0.134 | 0.0617 | 0.42 | 0.483 | 0.259 | 0.0958 | 0.0607
NCI-H23 | 0.349 | 0.269 | 0.218 | 0.166 | 0.13 | 1.02 | 0.759 | 0.564 | 0.123 | 0.138 | 0.196 | 0.261 | 0.199 | 0.0923 | 0.0935 | 0.211 | 0.209 | 0.213 | 0.206 | 0.22
NCI-H322M | 0.492 | 0.475 | 0.511 | 0.547 | 0.495 | 0.956 | 1.16 | 0.857 | 0.499 | 0.406 | 0.593 | 0.722 | 0.498 | 0.451 | 0.413 | 0.837 | 1.1 | 0.759 | 0.315 | 0.288
NCI-H358 | 0.0899 | 0.0976 | 0.118 | 0.0944 | 0.0929 | 0.724 | 0.71 | 0.484 | 0.0999 | 0.0726 | 0.541 | 0.493 | 0.419 | 0.193 | 0.14 | 0.26 | 0.378 | 0.29 | 0.102 | 0.13
NCI-H441 | 0.71 | 0.481 | 0.232 | 0.236 | 0.336 | 1.03 | 0.871 | 0.266 | 0.249 | 0.226 | 1.13 | 0.73 | 0.437 | 0.198 | 0.171 | 0.312 | 0.378 | 0.216 | 0.224 | 0.202
NCI-H460 | 0.497 | 0.294 | 0.0449 | 0.0359 | 0.0337 | 1.07 | 0.938 | 0.499 | 0.028 | 0.0214 | 0.63 | 0.654 | 0.554 | 0.0553 | 0.0434 | 0.0239 | 0.0323 | 0.0299 | 0.0165 | 0.0166
NCI-H596 | 0.867 | 0.843 | 0.705 | 0.383 | 0.359 | 1.03 | 0.908 | 0.481 | 0.307 | 0.242 | 1.1 | 1.14 | 0.943 | 0.664 | 0.413 | 1.16 | 1.08 | 0.79 | 0.272 | 0.276
NCI-H647 | 0.0011 | 0.324 | 0.218 | 0.125 | 0.104 | 1.1 | 1.17 | 0.444 | 0.195 | 0.0972 | 0.356 | 0.491 | 0.248 | 0.0314 | 0.026 | 0.438 | 0.143 | 0.12 | 0.101 | 0.069
NCI-H650 | 0.66 | 0.671 | 0.35 | 0.173 | 0.237 | 0.995 | 1.08 | 0.779 | 0.348 | 0.637 | 1.21 | 1.01 | 0.92 | 0.561 | 0.581 | 0.748 | 0.759 | 0.632 | 0.118 | 0.37
NCI-H727 | 0.639 | 0.565 | 0.659 | 0.445 | 0.42 | 0.929 | 0.941 | 0.639 | 0.309 | 0.476 | 0.712 | 0.495 | 0.504 | 0.527 | 0.487 | 0.396 | 0.311 | 0.334 | 0.291 | 0.31
